Laboratory results: the COVID Moonshot data (paper PMC11187573), “Identification of SARS-CoV-2 Mpro inhibitors through deep reinforcement learning for de novo drug design and computational chemistry approaches” (RSC Medicinal Chemistry, 2024)

Assays:
[1] = biological target: SARS-CoV-2 Main Protease (SARS-CoV-2) (UniProt P0DTD1)
[2] = biological target: SARS-CoV-2 Main Protease (SARS-CoV-2) (UniProt P0DTD1); remark: listed apart in the source

Row | Structure (SMILES) | inhibition ([1]; 20.0 µM) | inhibition ([1]; 50.0 µM) | inhibition ([2]; 20.0 µM) | relative solubility at 20 uM | relative solubility at 100 uM | IC50 [2] | inhibition ([2]; 50.0 µM)
1 | C=CC(=O)N(c1cc(C(C)(C)C)n[nH]1)C(C(=O)Nc1ccc(Cl)cc1)c1cccnc1 (centres undefined) | 6.12% | 19.5% | 0% | 0.78 | 0.68 |  | 
2 | COc1ccc2[nH]cc(CCNC(C)=O)c2c1 | 1.37% | -0.962% | 0% | 1 | 0.99 |  | 
3 | Cc1ccncc1NC(=O)C(C)(C)c1cccc(Cl)c1 | 49.3% | 68% |  | 1 | 1 | 24.5 µM | 66.9%
4 | C=CC(=O)N(C(C(=O)NC(C)(C)C)c1cccnc1)[C@@H]1C[C@@H]1c1ccccc1 (stereo in doubt) | -14.4% | -6.46% | 0% | 0.97 | 0.88 |  | 
5 | C=CC(=O)N(c1ccc(S(F)(F)(F)(F)F)cc1)C(C(=O)NC(C)(C)C)c1cccnc1 (centres undefined) | 11.1% | 23% | 6.54% | 0.98 | 0.9 |  | 
6 | C#CCN1CCN(C(=O)CCl)CC1 |  | 27.2% | 6.86% | 1 | 1 |  | 7.12%
7 | C=CC(=O)N(c1ccc(C(C)(C)C)cc1)C(C(=O)NC(C)(C)C)c1cncc(Cl)c1 (centres undefined) | 34.6% | 19.6% | 0% | 0.99 | 0.86 |  | 13.5%
8 | O=C(c1cc(=O)[nH]c2ccccc12)N1CCN(c2ccccc2F)CC1 | 50.7% | 75.6% |  | 0.98 | 0.99 |  | 46.4%
9 | O=C1N(Cc2cccc(Cl)c2)CCN1c1nccc2n[nH]cc12 | 72.1% | 84.1% |  | 0.92 | 0.93 | 2.91 µM | 88.8%
10 | O=C(CCl)N1CCN(C(c2ccccc2)c2ccccc2)CC1 |  | 108% | 100% | -0.2 | 0.01 | 0.386 µM | 100%
11 | C=CC(=O)NCC(=O)N(CCN1CCOCC1)Cc1ccccc1Cl | -18.3% | -19.7% | 0% | 1 | 1 |  | 0%
12 | O=C(CC(=O)Nc1ccncc1)Nc1ccccc1 |  | 12% | 0% | 1 | 1 |  | 0%
13 | C=CC(=O)N(c1ccc(C(C)(C)C)cc1)C(C(=O)NCc1ccccc1)c1cccnc1 (centres undefined) | 42.3% | 66.6% | 69.1% | 0.99 | 0.89 | 14.3 µM | 100%
14 | CC1CN(Cc2cccc(Cl)c2)CCN1C(=O)CCl (centres undefined) | 88.3% | 93.9% | 94.6% | 0.99 | 0.99 | 2.08 µM | 100%
15 | Cc1ccnc(NC(=O)Cc2ccc3ccccc3c2)c1 | 3.57% | 8.23% | 0% | 0.98 | 0.94 |  | 
16 | O=C(CCl)NC(CO)c1cccc(Cl)c1 (centres undefined) |  | 51.6% | 16% | 1 | 0.99 |  | 45.3%
17 | C=CC(=O)N1CCN(S(=O)(=O)c2ccccc2-c2ccc(Nc3ccc(C#N)cn3)cc2)CC1 | -11.3% | -6.3% |  | 0.75 | 0.61 |  | 0%

Row | Structure (SMILES) | inhibition ([1]; 20.0 µM) | inhibition ([1]; 50.0 µM) | inhibition ([2]; 20.0 µM) | relative solubility at 20 uM | relative solubility at 100 uM | IC50 [2] | inhibition ([2]; 50.0 µM)
18 | CN1CCC(C(=O)NC2CCCCC2NC(=O)c2ccccc2)CC1 (centres undefined) |  | -15.4% | 0% | 0.98 | 0.99 |  | 0%
19 | CC(Cl)C(=O)N1CCC(C(=O)N2CCCCC2)CC1 (centres undefined) | -11.9% | -27% | 0% | 0.99 | 1 |  | 0%
20 | CC(NC(=O)c1ccccc1OCC(N)=O)c1cnn(C)c1 (centres undefined) | -1.52% | 2.68% | 0% | 1 | 1 |  | 0%
21 | Cn1cnnc1CNC(=O)Nc1cc(C(F)(F)F)c[nH]c1=O | 7.84% | 14.8% |  | 1 | 1 |  | 3.33%
22 | COc1ccccc1OC1CCCN(C(=O)c2cc(=O)[nH]c3ccc(Cl)cc23)C1 (centres undefined) | -0.617% | 5.27% |  | 0.99 | 0.93 |  | 0%
23 | CC(=O)N1CCN(S(=O)(=O)C2=CC[SH]=C2)CC1 |  | -20.6% | 0% | 0.99 | 1 |  | 3.62%
24 | CC(NC(=O)Nc1cccc(N2CCCCC2=O)c1)c1ccn[nH]1 (centres undefined) | -8.95% | -2.76% |  | 1 | 1 |  | 0%
25 | Cc1nnc(NC(=O)Cc2cccc(Cl)c2)n1C | -6.05% | 0.874% |  | 1 | 1 |  | -14%
26 | C=CC(=O)N(c1ccc(C(C)(C)C)cc1)C(C(=O)Nc1ccccc1OC)c1cccnc1 (centres undefined) | 26.3% | 44.2% | 0% | 0.97 | 0.95 |  | 25.4%
27 | CS(=O)(=O)N(CCc1ccccc1)CC1CCN(C(=O)CCl)CC1 | 23.9% | 26.1% |  | 0.96 | 0.89 |  | 73.3%
28 | C=CC(=O)N(C(C(=O)NC(C)(C)C)c1cccnc1)C1CC12CC(C)(C)C2 (centres undefined) | 13% | 15.5% |  | 1 | 0.99 |  | 3.54%
29 | O=C(NCCc1ccc2c(c1)CCO2)NCc1cccc(N2C(=O)NC3(CCCC3)C2=O)c1 | -29% | -12% |  | 0.95 | 0.97 |  | -30.5%
30 | C=CC(=O)N(c1ccc(C(C)(C)C)cc1)C(C(=O)NCC1CCCO1)c1cccnc1 (centres undefined) | 70.8% | 44.1% | 0% | 1 | 0.99 |  | 25.6%
31 | Cc1cccc(C)c1OCC(=O)NCCc1ccccc1 | 1.78% | 7.25% | 0% | 1 | 0.98 |  | 0%
32 | CCC(=O)O[C@@H](OP(=O)(CCCCc1ccccc1)CC(=O)N1C[C@H](C2CCCCC2)C[C@H]1C(=O)O)C(C)C (stereo in doubt) | 4.91% | -0.253% | 3.17% | 1 | 0.92 |  | 
33 | N#Cc1cccc(NC(=O)Cc2c[nH]c3ncccc23)c1 | 2.74% | 2.91% | 0% | 1 | 0.95 |  | 
